Data on 9 compounds can be found in DBAASP.

Structures are written as SMILES. In brackets after ≈: the same amount, converted by molar mass. Several values for one entry are separate records, joined by “and”; a condition that tells them apart may be missing. Equal entries are not always repeated.

Test systems include Enterococcus faecalis; Bacillus cereus; Listeria innocua; Leuconostoc lactis; Escherichia coli; Pasteurella multocida; Pseudomonas aeruginosa; Streptococcus uberis; Micrococcus luteus; Enterobacter cloacae; Escherichia coli BW25113.
Common to all, as to assay: ≥ marks a high value that may be exact or a test limit, other limits are often not marked, values filed in µg/mL are converted to µM
The test system of assay [1] is Candida albicans KCTC 7270.
The subject of assay [2] is Staphylococcus epidermidis KCTC 1917.
For assay [3], the system named is Escherichia coli ATCC 25922.
Assay [4] has as its system Pseudomonas aeruginosa KCTC 1637.
Assay [5] concerns Escherichia coli KCTC 1682.
Assay [6] relates to Pseudomonas aeruginosa ATCC 15692.
Assay [7] has as its system Staphylococcus aureus KCTC 1621.
In assay [8] the test system is Proteus vulgaris KCTC 2433.
For assay [9], the system named is Saccharomyces cerevisiae KCTC 7296.
Assay [10] deals with Salmonella typhimurium KCTC 1926.
For assay [11], the system named is Staphylococcus aureus ATCC 25923.
Assay [12] concerns Bacillus subtilis KCTC 1918.
For assay [13], the system named is Trichosporon beigelii KCTC 7707.
Assay [14] concerns Staphylococcus aureus NCTC 10788.
The test system of assay [15] is Staphylococcus epidermidis.
The subject of assay [16] is Staphylococcus aureus ATCC 29213.
Assay [17] deals with Pseudomonas corrugata DSM 7228.
For assay [18], the system named is Clavibacter michiganensis subsp. michiganensis DSM 46294.
Assay [19] concerns Pseudomonas syringae pv. syringae DSM 10604.
For assay [20], the system named is Xanthomonas vesicatoria DSM 50861.
The test system of assay [21] is Pectobacterium carotovorum subsp. carotovorum DSM 30168.
Assay [22] deals with Pseudomonas syringae pv. tomato DC3000.
Assay [23] relates to Pseudomonas aeruginosa ATCC 15422.
In assay [24] the test system is Enterococcus faecalis ATCC 29212.
The subject of assay [25] is Candida albicans ATCC 10231.
The test system of assay [26] is Staphylococcus aureus USA 100.
The test system of assay [27] is Staphylococcus aureus USA 300.
The subject of assay [28] is Pseudomonas aeruginosa ATCC 9027.
Assay [29] deals with Candida albicans ATCC 90028.

As for `CC[C@H](C)[C@H](NC(=O)[C@H](CCCCN)NC(=O)[C@H](CO)NC(=O)[C@H](Cc1ccccc1)NC(=O)[C@H](CC(C)C)NC(=O)[C@H](CCCCN)NC(=O)[C@@H]1CCCN1C(=O)[C@H](CC(C)C)NC(=O)[C@H](CCCN=C(N)N)NC(=O)[C@H](CCCCN)NC(=O)[C@H](Cc1ccccc1)NC(=O)[C@@H](NC(=O)[C@H](CCCCN)NC(=O)[C@H](CCCCN)NC(=O)[C@H](C)N)C(C)C)C(=O)N[C@@H](Cc1c[nH]c2ccccc12)C(=O)N[C@@H](CC(N)=O)C(=O)N[C@@H](Cc1c[nH]c2ccccc12)C(=O)N[C@@H](CCCCN)C(N)=O` [AKKVFKRLPKLFSKIWNWK], the MIC – broadly, the lowest concentration found to suppress growth – in [1] amounted to 3.13 µM (≈ 7.57 µg/mL); in [2], 0.39 µM (≈ 0.943 µg/mL); in assay [3], 2 µM (≈ 4.83 µg/mL); in [4] it was 1.56 µM (≈ 3.77 µg/mL); in [5] it was 0.19 µM (≈ 0.459 µg/mL); in [6], 2 µM (≈ 4.83 µg/mL). In addition, the MIC was determined as 0.39 µM (≈ 0.943 µg/mL) in assay [7]; 0.09 µM (≈ 0.218 µg/mL) in assay [8]; 1.56 µM (≈ 3.77 µg/mL) in [9]; 0.09 µM (≈ 0.218 µg/mL) in assay [10]; 4 µM (≈ 9.67 µg/mL) in assay [11]; 0.39 µM (≈ 0.943 µg/mL) in assay [12]. This compound also yielded an MIC in assay [13] of 1.56 µM (≈ 3.77 µg/mL).

For `CC[C@H](C)[C@H](NC(=O)[C@H](CC(C)C)NC(=O)CNC(=O)[C@H](CC(C)C)NC(=O)[C@@H](N)Cc1ccccc1)C(=O)NCC(=O)N[C@@H](CO)C(=O)N[C@@H](CC(C)C)C(=O)N[C@@H](CC(C)C)C(N)=O` [FLGLIGSLL], the MIC in [14] is at least 137 µM.

Turning to `CC[C@H](C)[C@H](NC(=O)[C@@H](NC(=O)[C@@H]1CCCN1C(=O)[C@@H](NC(=O)[C@@H](NC(=O)[C@H](Cc1cnc[nH]1)NC(=O)[C@@H]1CCCN1C(=O)[C@H](CC(C)C)NC(=O)[C@H](CC(C)C)NC(=O)[C@H](Cc1cnc[nH]1)NC(=O)[C@H](CCCCN)NC(=O)[C@H](C)NC(=O)[C@@H](NC(=O)[C@H](CO)NC(=O)CNC(=O)[C@H](CC(C)C)NC(=O)[C@@H](NC(=O)[C@H](CO)NC(=O)[C@H](Cc1ccccc1)NC(=O)[C@H](CC(C)C)NC(=O)CN)C(C)C)C(C)C)C(C)C)C(C)C)C(C)C)C(=O)N[C@@H](C)C(=O)N[C@@H](CCC(=O)O)C(=O)N[C@@H](CCCCN)C(=O)N[C@@H](CC(C)C)C(N)=O` [GLFSVLGSVAKHLLPHVVPVIAEKL], the MIC in assay [15] is 9.53 µM (≈ 25 µg/mL); in the assay with Enterococcus faecalis, at least 38.1 µM; against Bacillus cereus, 19.1 µM (≈ 50 µg/mL); with Listeria innocua, 4.57 µM (≈ 12 µg/mL); in the assay with Leuconostoc lactis it was 9.53 µM (≈ 25 µg/mL); in assay [16], 4.57 µM (≈ 12 µg/mL). The MIC in the assay on Escherichia coli is above 38.1 µM; in the assay with Pasteurella multocida, 19.1 µM (≈ 50 µg/mL); in the assay with Pseudomonas aeruginosa it was above 38.1 µM; in the assay with Streptococcus uberis, 9.53 µM (≈ 25 µg/mL); with Micrococcus luteus, 4.57 µM (≈ 12 µg/mL); with Enterobacter cloacae it was at least 38.1 µM. This compound also registered an MIC in [11] of 4.57 µM (≈ 12 µg/mL).

`CC[C@H](C)[C@H](NC(=O)[C@H](C)NC(=O)[C@H](CCCCN)NC(=O)[C@H](CCCN=C(N)N)NC(=O)[C@H](CCCN=C(N)N)NC(=O)[C@@H](N)CCCCN)C(=O)N[C@@H](CCCCN)C(=O)N[C@H](C(=O)N[C@@H](CC(C)C)C(=O)N[C@@H](CCCCN)C(=O)N[C@@H](CC(C)C)C(=O)N[C@H](C(=O)N[C@@H](C)C(=O)N[C@@H](CCCCN)C(=O)N[C@@H](CC(C)C)C(=O)N[C@H](C(=O)N[C@@H](CCCN=C(N)N)C(=O)N[C@@H](CCCCN)C(=O)N[C@@H](CCCCN)C(=O)N[C@@H](CCCN=C(N)N)C(N)=O)[C@@H](C)CC)[C@@H](C)CC)[C@@H](C)CC` [KRRKAIKILKLIAKLIRKKR]: the minimum inhibitory concentration (MIC) in [17] was 0.101 µM (≈ 0.25 µg/mL); in assay [18] it was 0.0404 µM (≈ 0.0999 µg/mL); in [19], 4.04 µM (≈ 10 µg/mL); in [20], 0.0404 µM (≈ 0.0999 µg/mL); in assay [21] it was 4.04 µM (≈ 10 µg/mL); in assay [22], 4.04 µM (≈ 10 µg/mL).

In the case of `CC(C)C[C@H](NC(=O)CNC(=O)[C@H](Cc1ccc(O)cc1)NC(=O)[C@H](Cc1cnc[nH]1)NC(=O)[C@@H]1CCCN1C(=O)[C@H](CC(C)C)NC(=O)[C@H](CCC(=O)O)NC(=O)[C@H](Cc1ccccc1)NC(=O)[C@H](Cc1cnc[nH]1)NC(=O)[C@H](CO)NC(=O)[C@@H](N)CCCCN)C(=O)O` [KSHFELPHYGL], the MIC in assay [2] was at least 315 µM; in [3], above 500 µM; in assay [23], at least 500 µM; in assay [24], 468 µM and 458 µM and 442 µM; in [25], above 500 µM.

In the case of `NC(=O)CC[C@H](NC(=O)[C@H](CCCN=C(N)N)NC(=O)[C@@H](N)CCC(N)=O)C(=O)N[C@@H](CCCN=C(N)N)C(N)=O` [QRQR], in assay [26], the MIC was at least 100 µM.

Turning to `CC[C@H](C)[C@H](NC(=O)[C@H](CCCCN)NC(=O)[C@H](Cc1ccccc1)NC(=O)[C@H](CCCCN)NC(=O)[C@H](CCCCN)NC(=O)[C@H](CCCCN)NC(=O)[C@@H](N)CCCN=C(N)N)C(=O)N[C@@H](Cc1ccccc1)C(=O)N[C@@H](CCCCN)C(=O)N[C@@H](CCCN=C(N)N)C(=O)N[C@@H](CC(C)C)C(=O)N[C@@H](Cc1ccccc1)C(N)=O` [RKKKFKIFKRLF], the MIC in assay [17] worked out at 0.305 µM (≈ 0.5 µg/mL); in assay [18], 0.61 µM (≈ 0.999 µg/mL); in assay [19], 0.061 µM (≈ 0.0999 µg/mL); in assay [20], 0.61 µM (≈ 0.999 µg/mL); in [21], 6.1 µM (≈ 9.99 µg/mL); in assay [22] it was 0.61 µM (≈ 0.999 µg/mL).

On to `CSCC[C@H](NC(=O)[C@H](Cc1cnc[nH]1)NC(=O)[C@H](CCCCN)NC(=O)[C@H](CC(C)C)NC(=O)[C@H](CCCCN)NC(=O)[C@@H](N)CCCN=C(N)N)C(=O)N[C@@H](CCCN=C(N)N)C(=O)N[C@@H](Cc1ccccc1)C(=O)O` [RKLKHMRF], for which the MIC in [27] was at least 100 µM; in assay [28], above 100 µM; in assay [26], at least 100 µM; in assay [29], at least 100 µM.

`CC[C@H](C)[C@H](NC(=O)[C@@H]1CCCN1C(=O)[C@@H]1CCCN1C(=O)[C@H](CCCN=C(N)N)NC(=O)[C@H](Cc1c[nH]c2ccccc12)NC(=O)[C@@H](N)CCCN=C(N)N)C(=O)N[C@@H](CCCN=C(N)N)C(=O)N[C@@H](CCCN=C(N)N)C(=O)N1CCC[C@H]1C(=O)N1CCC[C@H]1C(=O)N[C@H](C(=O)N[C@@H](CCCN=C(N)N)C(=O)N1CCC[C@H]1C(=O)N1CCC[C@H]1C(=O)N[C@@H](Cc1c[nH]c2ccccc12)C(=O)N[C@@H](Cc1ccc(O)cc1)C(=O)N1CCC[C@H]1C(=O)O)[C@@H](C)CC` [RWRPPIRRPPIRPPWYP] came in with an MIC with Escherichia coli BW25113 of 16 µM (≈ 35.9 µg/mL).
